The values that follow are results of earlier work, collected in US12326454B2 (Arium BioLabs LLC, priority 2019, dated 2025).

SMILES strings stand for the structures.

The series deals with cMET (Homo sapiens, UniProt P08581). Particulars: stabilizes the A-loop, auto-inhibited conformation.
Chain of cMET (P08581 25-1390): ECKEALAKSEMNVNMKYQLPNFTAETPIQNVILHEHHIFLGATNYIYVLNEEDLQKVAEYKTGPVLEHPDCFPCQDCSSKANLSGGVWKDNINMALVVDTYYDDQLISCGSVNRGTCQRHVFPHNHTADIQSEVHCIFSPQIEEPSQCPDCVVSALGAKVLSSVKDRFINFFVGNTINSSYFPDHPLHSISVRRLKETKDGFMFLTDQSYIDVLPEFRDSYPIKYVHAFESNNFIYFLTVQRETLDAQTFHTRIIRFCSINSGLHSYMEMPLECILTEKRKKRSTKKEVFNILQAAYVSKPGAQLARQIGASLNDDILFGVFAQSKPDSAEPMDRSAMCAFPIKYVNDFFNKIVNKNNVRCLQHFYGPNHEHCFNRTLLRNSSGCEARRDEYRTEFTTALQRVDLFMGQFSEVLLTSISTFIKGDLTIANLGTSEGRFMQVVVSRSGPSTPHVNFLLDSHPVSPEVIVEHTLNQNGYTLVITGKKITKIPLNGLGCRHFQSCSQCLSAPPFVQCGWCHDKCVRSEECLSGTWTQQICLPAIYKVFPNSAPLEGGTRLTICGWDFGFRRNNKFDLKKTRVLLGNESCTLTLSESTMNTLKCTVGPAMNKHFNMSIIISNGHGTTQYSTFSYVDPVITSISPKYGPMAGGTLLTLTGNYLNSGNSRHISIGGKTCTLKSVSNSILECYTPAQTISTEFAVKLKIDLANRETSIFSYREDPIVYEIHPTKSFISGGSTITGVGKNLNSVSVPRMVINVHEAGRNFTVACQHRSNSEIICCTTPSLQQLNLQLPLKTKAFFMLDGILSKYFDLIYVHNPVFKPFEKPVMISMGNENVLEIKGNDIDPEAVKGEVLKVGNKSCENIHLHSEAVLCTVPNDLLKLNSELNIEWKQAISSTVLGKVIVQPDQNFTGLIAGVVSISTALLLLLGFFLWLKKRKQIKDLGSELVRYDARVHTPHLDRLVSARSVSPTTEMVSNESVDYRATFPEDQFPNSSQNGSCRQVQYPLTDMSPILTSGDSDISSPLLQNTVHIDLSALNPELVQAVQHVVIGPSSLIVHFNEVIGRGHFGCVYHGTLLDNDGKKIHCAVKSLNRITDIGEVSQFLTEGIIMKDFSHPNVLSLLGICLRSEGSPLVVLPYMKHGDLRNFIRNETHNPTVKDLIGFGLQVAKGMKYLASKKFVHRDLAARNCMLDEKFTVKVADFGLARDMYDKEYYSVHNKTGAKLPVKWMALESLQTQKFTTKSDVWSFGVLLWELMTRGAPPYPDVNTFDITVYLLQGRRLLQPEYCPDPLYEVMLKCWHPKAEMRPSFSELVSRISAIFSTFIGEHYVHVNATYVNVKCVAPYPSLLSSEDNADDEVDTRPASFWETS

Regarding `O=C1NC(=O)[C@@H](c2cn3c4c(cccc24)CCC3)[C@@H]1c1c[nH]c2ccccc12` [ARQ197], the “effect on cMET” value is reported as “selectively inhibits cMET”.
